Laboratory results from BindingDB's records for doi:10.1016/0166-4328(96)00089-7 (Glaxo Research and Development, 1996).

How the values were obtained:
[1] = target: 5-hydroxytryptamine receptor 4 (Cavia porcellus, UniProt O70528)
[2] = target: 5-hydroxytryptamine receptor 2A (Rattus norvegicus, UniProt P14842)
[3] = target: T1, 5-hydroxytryptamine receptor 2C (Sus scrofa, UniProt G7ZKZ7)
T1 sequence (G7ZKZ7 whole entry): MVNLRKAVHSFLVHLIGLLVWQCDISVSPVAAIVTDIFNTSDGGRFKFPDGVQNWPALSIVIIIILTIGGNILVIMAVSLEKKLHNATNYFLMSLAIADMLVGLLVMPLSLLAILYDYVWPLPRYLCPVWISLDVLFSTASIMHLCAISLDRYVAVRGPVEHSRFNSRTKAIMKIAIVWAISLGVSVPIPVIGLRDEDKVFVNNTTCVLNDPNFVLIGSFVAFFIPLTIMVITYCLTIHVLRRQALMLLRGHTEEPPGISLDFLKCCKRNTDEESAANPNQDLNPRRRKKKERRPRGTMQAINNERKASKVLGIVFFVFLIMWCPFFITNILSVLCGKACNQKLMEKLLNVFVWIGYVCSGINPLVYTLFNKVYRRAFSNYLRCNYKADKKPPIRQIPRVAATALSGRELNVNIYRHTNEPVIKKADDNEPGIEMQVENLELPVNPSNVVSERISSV

[4] = target: T2, 5-hydroxytryptamine receptor 3A (Rattus norvegicus, UniProt P35563)
T2 sequence (P35563 whole entry): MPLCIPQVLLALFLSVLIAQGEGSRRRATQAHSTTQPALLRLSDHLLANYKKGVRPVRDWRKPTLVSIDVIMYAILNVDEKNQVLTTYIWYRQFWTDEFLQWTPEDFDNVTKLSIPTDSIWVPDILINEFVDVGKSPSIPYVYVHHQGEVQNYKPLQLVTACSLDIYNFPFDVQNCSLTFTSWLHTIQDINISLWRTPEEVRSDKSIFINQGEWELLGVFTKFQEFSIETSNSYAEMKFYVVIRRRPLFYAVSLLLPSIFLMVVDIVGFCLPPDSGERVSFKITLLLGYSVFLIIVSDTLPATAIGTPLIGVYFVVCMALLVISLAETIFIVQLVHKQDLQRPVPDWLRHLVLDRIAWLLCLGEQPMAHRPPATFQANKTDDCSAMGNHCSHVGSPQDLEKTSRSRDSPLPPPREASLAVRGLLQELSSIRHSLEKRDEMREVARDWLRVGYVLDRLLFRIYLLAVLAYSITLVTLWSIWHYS

[5] = target: 5-hydroxytryptamine receptor 5A (Homo sapiens, UniProt P47898)
Sequence of 5-hydroxytryptamine receptor 5A (P47898 whole entry): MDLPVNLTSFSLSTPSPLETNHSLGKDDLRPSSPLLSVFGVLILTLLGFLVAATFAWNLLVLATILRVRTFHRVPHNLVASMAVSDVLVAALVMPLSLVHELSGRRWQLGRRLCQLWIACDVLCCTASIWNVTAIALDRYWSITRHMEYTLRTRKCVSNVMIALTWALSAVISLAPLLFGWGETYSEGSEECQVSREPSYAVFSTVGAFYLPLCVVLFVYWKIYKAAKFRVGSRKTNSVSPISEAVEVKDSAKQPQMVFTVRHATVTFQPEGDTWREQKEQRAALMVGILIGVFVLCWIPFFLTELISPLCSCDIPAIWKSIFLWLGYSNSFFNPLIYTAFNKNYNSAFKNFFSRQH

Sequence of 5-hydroxytryptamine receptor 2A (P14842 whole entry): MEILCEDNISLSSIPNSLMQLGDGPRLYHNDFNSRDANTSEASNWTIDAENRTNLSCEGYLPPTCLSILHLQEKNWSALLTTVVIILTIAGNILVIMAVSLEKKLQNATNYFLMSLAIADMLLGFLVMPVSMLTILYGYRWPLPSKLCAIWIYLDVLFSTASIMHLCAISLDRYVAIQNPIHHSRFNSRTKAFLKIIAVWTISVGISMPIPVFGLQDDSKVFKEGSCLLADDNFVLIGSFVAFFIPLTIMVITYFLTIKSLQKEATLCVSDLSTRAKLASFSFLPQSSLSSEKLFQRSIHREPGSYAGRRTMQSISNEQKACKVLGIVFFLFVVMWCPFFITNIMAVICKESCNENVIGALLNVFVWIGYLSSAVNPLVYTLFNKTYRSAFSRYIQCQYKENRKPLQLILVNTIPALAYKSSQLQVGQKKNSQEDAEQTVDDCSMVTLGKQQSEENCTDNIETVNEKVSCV
Sequence of 5-hydroxytryptamine receptor 4 (O70528 whole entry): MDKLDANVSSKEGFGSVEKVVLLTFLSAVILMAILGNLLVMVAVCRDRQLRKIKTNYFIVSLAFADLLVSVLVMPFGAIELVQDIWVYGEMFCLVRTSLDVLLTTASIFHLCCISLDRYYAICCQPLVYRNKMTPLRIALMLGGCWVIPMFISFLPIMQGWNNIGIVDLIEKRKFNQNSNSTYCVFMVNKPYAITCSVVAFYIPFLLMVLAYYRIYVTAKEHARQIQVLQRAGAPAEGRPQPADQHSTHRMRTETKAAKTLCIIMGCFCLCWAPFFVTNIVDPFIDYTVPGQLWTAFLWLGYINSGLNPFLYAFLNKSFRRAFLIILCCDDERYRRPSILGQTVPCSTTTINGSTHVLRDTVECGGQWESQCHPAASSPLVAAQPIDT

COc1ccc(NC(=O)c2ccc(-c3ccc(-c4noc(C)n4)cc3C)cc2)cc1N1CCN(C)CC1 [SMR001230745]
Ki [1]: > 10 µM | Ki [2]: 0.0398 µM | Ki [3]: 0.631 µM | Ki [4]: 6.31 µM | Ki [5]: 6.31 µM
